Source: patent US20100292205A1, “Pyrimidone Compounds As GSK-3 Inhibitors” (PFIZER INC., priority 2006, published 2010)
pIC50: −log10 of the molar value. Like-named read-outs stand apart in the source and are kept apart here.

Target: T1, Recombinant human GSK3β (Homo sapiens, UniProt P49841)
T1 construct: His-tag; made in house; host or cells: Sf9 insect cells / baculovirus
Assay: GSK-3β (Glycogen Synthase Kinase) cell free enzyme assay
Assay type: biochemical
Conditions: for pIC50: cell free enzyme assay; for inhibition at 1 µM: read-out: Percent inhibition at 1 μM
How it was run: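 This cell-free kinase assay measured [33P] transfer from [33P]ATP gamma phosphate into the biotinylated peptide bio-LC-S-R-H-S-S-P-H-Q-pS-E-D-E-E-E-OH. After 60 min at RT, reactions were stopped with 0.66 volume of PBS lacking Ca or Mg containing 12.5 mM EDTA, 0.25% Triton-X 100, 125 uM ATP and 6.2 mg/ml streptavidin SPA beads. Bead-bound radioactivity was counted as CPM on a Trilux scintillation counter.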

T1 sequence (P49841 whole entry): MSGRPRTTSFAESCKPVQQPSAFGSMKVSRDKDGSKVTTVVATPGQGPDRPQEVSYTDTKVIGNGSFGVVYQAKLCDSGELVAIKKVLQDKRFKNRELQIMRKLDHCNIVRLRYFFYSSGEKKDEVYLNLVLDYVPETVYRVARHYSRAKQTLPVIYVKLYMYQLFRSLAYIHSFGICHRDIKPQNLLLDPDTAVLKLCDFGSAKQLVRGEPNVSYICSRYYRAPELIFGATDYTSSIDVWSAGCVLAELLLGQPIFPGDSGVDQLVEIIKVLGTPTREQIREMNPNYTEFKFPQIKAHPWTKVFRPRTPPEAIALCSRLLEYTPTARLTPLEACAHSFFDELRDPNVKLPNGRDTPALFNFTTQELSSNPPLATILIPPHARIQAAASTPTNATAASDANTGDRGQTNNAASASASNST

## Cn1c(NC[C@@H]2CCCN2C(=O)c2ccccc2)nc(-c2ccncc2)cc1=O [Example 75, 2-({[(2S)-1-Benzoylpyrrolidin-2-yl]methyl}amino)-3-methyl-6-pyridin-4-ylpyrimidin-4(3H)-one]
Examples 62-155
  pIC50: 6.74

## Cn1c(N2CC[C@@H]3CN(S(=O)(=O)Cc4ccccc4)C[C@@H]32)nc(-c2ccncc2)cc1=O [Example 193, 2-[(3a,R6,aR)-5-(Benzylsulfonyl)hexahydro-pyrrolo[34-b]pyrrol-1(2H)-yl]-3-methyl-6-pyridin-4-ylpyrimidin-4(3H)-one]
1 μM, Examples 157-199
  inhibition at 1 µM: 80%

## CN(c1nc(-c2ccncn2)cc(=O)n1C)[C@@H]1CCCN(C(=O)C2CC2)C1 [Example 234, 2-{[(3R)-1-(Cyclopropylcarbonyl)piperi-din-3-yl](methyl)amino}-1-methyl-4,4′-bipyrimidin-6(1H)-one]
Examples 222-234
  pIC50: 8.77

## Cn1c(NC2CCCN(C(=O)Cc3ccccc3)CC2)nc(-c2ccncc2)cc1=O (stereo not drawn) [Example 80, 3-Methyl-2-{[1-(phenylacetyl)azepan-4-yl]amino}-6-pyridin-4-ylpyrimidin-4(3H)-one]
Examples 62-155
  pIC50: 7.27

## CC(C)C(=O)N1C[C@@H]2[C@H](C1)[C@H]2N(C)c1nc(-c2ccncc2F)cc(=O)n1C [Example 114, 6-(3-Fluoropyridin-4-yl)-2-{[(1R,5S,6s)-3-isobutyryl-3-azabicyclo[3.1.0]hex-6-yl](methyl)amino}-3-methylpyrimidin-4(3H)-one]
Examples 62-155
  pIC50: 7.82

## CCN(c1nc(-c2ccncc2)cc(=O)n1C)C1CCN(C(=O)OC)CC1 [Example 217, Methyl 4-[ethyl(1-methyl-6-oxo-4-pyridin-4-yl-16-dihydropyrimidin-2-yl)amino]piperidine-1-carboxylate]
1 μM, Examples 201-221
  inhibition at 1 µM: 84%

## COC(=O)N1CC(CNc2nc(-c3ccncc3)cc(=O)n2C)C1 [Example 219, Methyl 3-{[(1-methyl-6-oxo-4-pyridin-4-yl-16-dihydropyrimidin-2-yl)amino]methyl}azetidine-1-carboxylate]
1 μM, Examples 201-221
  inhibition at 1 µM: 72%

## CN(c1nc(-c2ccncc2F)cc(=O)n1C)[C@H]1[C@@H]2CN(c3nc4cc(C(F)(F)F)ccc4[nH]3)C[C@@H]21 [Example 281, 6-(3-Fluoropyridin-4-yl)-3-methyl-2-(methyl{(1R,5S,6s)-3-[5-(trifluoromethyl)-1H-benzimidazol-2-yl]-3-azabicyclo[3.1.0]hex-6-yl}amino)pyrimidin-4(3H)-one]
Examples 265-291
  pIC50: 7.44

## CCCC(C)C(=O)N1C[C@@H]2[C@H](C1)[C@H]2N(C)c1nc(-c2ccncc2F)cc(=O)n1C (stereo partly drawn) [Example 100, 6-(3-Fluoropyridin-4-yl)-3-methyl-2-{methyl[(1R,5S,6s)-3-(2-methylpentanoyl)-3-azabicyclo[3.1.0]hex-6-yl]amino}pyrimidin-4(3H)-one]
Examples 62-155
  pIC50: 8.04

## CN1CCC(Nc2nc(-c3ccncc3)cc(=O)n2C)C1 (stereo not drawn) [Example 240, 3-Methyl-2-[(1-methylpyrrolidin-3-yl)amino]-6-pyridin-4-ylpyrimidin-4(3H)-one]
1 μM, Examples 236-262
  inhibition at 1 µM: 49%

## CN(c1nc(-c2ccncc2F)cc(=O)n1C)[C@H]1[C@@H]2CN(C(=O)c3cc(Cl)sc3Cl)C[C@@H]21 [Example 141, 2-[{(1R,5S,6s)-3-[(2,5-Dichloro-3-thienyl)carbonyl]-3-azabicyclo[3.1.0]hex-6-yl}(methyl)amino]-6-(3-fluoropyridin-4-yl)-3-methylpyrimidin-4(3H)-one]
Examples 62-155
  pIC50: 8.98

## COC(=O)N1C[C@H](Nc2nc(-c3ccncc3)cc(=O)n2C)[C@@H](F)C1 [Example 207, Methyl (3S,4S)-3-fluoro-4-[(1-methyl-6-oxo-4-pyridin-4-yl-l6-dihydropyrimidin-2-yl)amino]pyrrolidine-1-carboxylate]
1 μM, Examples 201-221
  inhibition at 1 µM: 74%

## CC[C@@H](Oc1ccccc1)C(=O)N1C[C@@H]2[C@H](C1)[C@H]2N(C)c1nc(-c2ccncc2F)cc(=O)n1C [Example 145, 6-(3-Fluoropyridin-4-yl)-3-methyl-2-{methyl[(1R,5S,6s)-3-(2-phenoxybutanoyl)-3-azabicyclo[3.1.0]hex-6-yl]amino}pyrimidin-4(3H)-one]
Examples 62-155
  pIC50: 7.88

## CCN(c1nc(-c2ccncc2)cc(=O)n1C)C1CCCN(C(=O)Cc2ccccc2)CC1 (stereo not drawn) [Example 89, 2-{Ethyl[1-(phenylacetyl)azepan-4-yl]amino}-3-methyl-6-pyridin-4-ylpyrimidin-4(3H)-one]
Examples 62-155
  pIC50: 7.19

## CCN(C[C@H]1CCCN1C(=O)Cc1ccccc1)c1nc(-c2ccncc2)cc(=O)n1C [Example 94, 2-(Ethyl{[(2R)-1-(phenylacetyl)pyrrolidin-2-yl]methyl}amino)-3-methyl-6-pyridin-4-ylpyrimidin-4(3H)-one]
Examples 62-155
  pIC50: 7.74

## COC(=O)N1CCCCC(Nc2nc(-c3ccncc3)cc(=O)n2C)C1 (stereo not drawn) [Example 206, Methyl 3-[(1-methyl-6-oxo-4-pyridin-4-yl-16-dihydropyrimidin-2-yl)amino]azepane-1-carboxylate]
1 μM, Examples 201-221
  inhibition at 1 µM: 94%

## CCN(C[C@H]1CCCN1S(C)(=O)=O)c1nc(-c2ccncc2)cc(=O)n1C [Example 166, 2-(Ethyl{[(2R)-1-(methylsulfonyl)pyrrolidin-2-yl]methyl}amino)-3-methyl-6-pyridin-4-ylpyrimidin-4(3H)-one]
1 μM, Examples 157-199
  inhibition at 1 µM: 74%

## Cn1c(NC2CCCCN(C(=O)Cc3ccccc3)C2)nc(-c2ccncc2)cc1=O (stereo not drawn) [Example 84, 3-Methyl-2-{[1-(phenylacetyl)azepan-3-yl]amino}-6-pyridin-4-ylpyrimidin-4(3H)-one]
Examples 62-155
  pIC50: 6.17

## Cn1c(NC2CCN(C(=O)Cc3ccccc3)CC2)nc(-c2ccncc2)cc1=O [Example 85, 3-Methyl-2-{[1-(phenylacetyl)piperidin-4-yl]amino}-6-pyridin-4-ylpyrimidin-4(3H)-one]
Examples 62-155
  pIC50: 6.48

## Cc1nn(C2CCCC2)c2nc(N3C[C@@H]4[C@H](C3)[C@H]4N(C)c3nc(-c4ccncc4F)cc(=O)n3C)[nH]c(=O)c12 [Example 277, 1-Cyclopentyl-6-[(1R,5S,6s)-6-{[4-(3-fluoropyridin-4-yl)-1-methyl-6-oxo-1,6-dihydropyrimidin-2-yl](methyl)amino}-3-azabicyclo[3.1.0]hex-3-yl]-3-methyl-1,5-dihydro-4H-pyrazolo[3,4-d]pyrimidin-4-one]
Examples 265-291
  pIC50: 7.29

## CN(c1nc(-c2ccncc2)cc(=O)n1C)[C@@H]1CC[C@H]2N(S(C)(=O)=O)CC[C@@]2(C)C1 [Example 162, 3-Methyl-2-{methyl[(3a,S5,R7,aR)-3a-methyl-1-(methylsulfonyl)octahydro-1H-indo-5-yl]amino}-6-pyridin-4-ylpyrimidin-4(3H)-one]
1 μM, Examples 157-199
  inhibition at 1 µM: 84%

## CN(c1nc(-c2ccncc2F)cc(=O)n1C)[C@H]1[C@@H]2CN(C(=O)CC(C)(C)C)C[C@@H]21 [Example 131, 2-{[(1R,5S,6s)-3-(3,3-Dimethylbutanoyl)-3-azabicyclo[3.1.0]hex-6-yl](methyl)amino}-6-(3-fluoropyridin-4-yl)-3-methylpyrimidin-4(3H)-one]
Examples 62-155
  pIC50: 8.80

## CC(=O)N1C[C@H](F)[C@H](Nc2nc(-c3ccncc3)cc(=O)n2C)C1 [Example 51, 2-{[(3R,4S)-1-Acetyl-4-fluoropyrrolidin-3-yl]amino}-3-methyl-6-pyridin-4-ylpyrimidin-4(3H)-one]
1 μM, GSK-3β cell free enzyme assay, Examples 42-60
  inhibition at 1 µM: 78%

## 2-[(1R,5S)-3-Benzyl- 38- diazabicyclo[3.2.1]oct- 8-yl]-3-methyl-6- pyridin-4-ylpyrimidin- 4(3H)-one [Example 250]
1 μM, Examples 236-262
  Percent inhibition at 1 μM: 69%
